Laboratory results taken from US9561228B2 (Celgene Avilomics Research, Inc., priority 2013, dated 2017).

Assays:
MEK1 activated ERK1 = biological target: T1, MEK1 activated ERK1 (Homo sapiens, UniProt P27361); test: Omnia continuous-read kinase assay for potency against MEK1 activated ERK1; format: biochemical; details: MEK1 activated ERK1, ATP at KM; read-out: ERK1 Omnia WT ATP KM IC50
T1 construct: purchased Millipore (Billerica, Mass.) 14-439-K
Excerpt: Omnia Assay Protocol for Potency Assessment Against MEK1 Activated ERK1:
The protocol below describes continuous-read kinase assays to measure potency of compounds against activated ERK1 enzyme. The mechanics of the assay platform are best described by the vendor (Invitrogen, Carlsbad, Calif.) on their website at the following URL: invitrogen.com/site/us/en/home.html.
Briefly, a 1.25× stock of ERK1 enzyme (14-439-K) from Millipore (Billerica, Mass.), 5×ATP (AS001A) and ST17-Sox conjugated peptide substrate (KNZ1171C) were prepared in 1× kinase reaction buffer consisting of 20 mM Tris, pH 7.5, 5 mM MgCl2, 1 mM EGTA, 5 mM β-glycerophosphate, 5% glycerol (10× stock, KB002A) and 0.2 mM DTT. 10 μL of ATP/ST17-sox peptide substrate mix was combined with 0.5 μL volume of 100% DMSO and serially diluted compounds were prepared in 100% DMSO in a Corning (#3574) 384-well, white, non-binding surface microtiter plate (Corning, N.Y.). Kinase reactions were started with the addition of 40 μL of ERK1 solution and monitored every 71 seconds for 30-240 minutes at λex360/λem485 in a Synergy plate reader from BioTek (Winooski, Vt.). At the conclusion of each assay, progress curves from each well were examined for linear reaction kinetics and fit statistics (R^2, 95% confidence interval, absolute sum of squares). Initial velocity (0 minutes to ˜30+ minutes) from each reaction was determined from the slope of a plot of relative fluorescence units vs time (minutes or seconds) and then plotted against inhibitor concentration to estimate ^AppIC50 from log [Inhibitor] vs Response, Variable Slope model in GraphPad Prism from GraphPad Software (San Diego, Calif.).
[Reagent] used in optimized protocol:
[ERK1]=4 nM, [ATP]=50 μM, [ST17-Sox]=10 μM (ATP ^appKM 48 μM)
The results of this assay show the degree of inhibition of ERK activity, which is a direct measurement of inhibition of ERK activity. Results from this assay are reported in Table A under the column “ERK1 Omnia WT ATP KM IC50 (nM).”

[1] = tested on: ERK1/2 phosphorylation of p90RSK in HT29 cells; test: pRSK MSD Assay in HT29 cells; format: cell-based; details: Homo sapiens, HT-29, read-out: ERK1/ERK2 PRSK MSD HT29 EC50
Procedure: The protocol below describes an assay to measure the kinase activity of ERK1/2 to phosphorylate a substrate, p90RSK, in the presence or absence of a test compound. This experiment was conducted using a Mesoscale Discovery plate. The day before the assay, HT29 cells were split and plated at 50,000 cells/well in complete growth media. After allowing cells to adhere, the media was removed and replaced with media containing 0.1% FBS and incubated overnight. Blank MSD plates (Mesoscale Discovery, Cat # L15XA3) were coated with 25 μl/well RSK capture antibody (BD Biosciences, Cat. #610226) and incubated at 4° C. overnight, then blocked with 150 μl of 3% BSA solution. The next day, the media from the cell culture plate was removed and replaced with 100 μl of media containing a test compound and incubated for 120 minutes at 37° C. The media was removed and replaced with 55 μl per well of lysis buffer with protease inhibitors (Roche Biosciences, Cat. #11836170001) and phosphatase inhibitors (Sigma-Aldrich, Cat. # P-0044 and P-5726), followed by incubation at 4° C. for 30 minutes. 50 μl of lysate was transferred to a blocked MSD plate, followed by incubation at room temperature for 2 hours under constant shaking. The plate was washed 3 times with MSD wash buffer (Mesoscale Discovery, Cat. # R617TX), and 25 μl/well phospho-RSK (pRSK) detection antibody (Cell Signaling Technology, Cat. #9335) was added with Sulfo-tagged detection antibody (Mesoscale Discovery, Cat. # R32AB-1) diluted in 1% BSA in MSD wash buffer. This mixture was incubated for 1 hour at room temperature under constant shaking. The plate was washed 3 times, and 150 μl 1×MSD read buffer was added, followed by signal detection in an MSD plate reader.

T1 sequence (P27361 whole entry): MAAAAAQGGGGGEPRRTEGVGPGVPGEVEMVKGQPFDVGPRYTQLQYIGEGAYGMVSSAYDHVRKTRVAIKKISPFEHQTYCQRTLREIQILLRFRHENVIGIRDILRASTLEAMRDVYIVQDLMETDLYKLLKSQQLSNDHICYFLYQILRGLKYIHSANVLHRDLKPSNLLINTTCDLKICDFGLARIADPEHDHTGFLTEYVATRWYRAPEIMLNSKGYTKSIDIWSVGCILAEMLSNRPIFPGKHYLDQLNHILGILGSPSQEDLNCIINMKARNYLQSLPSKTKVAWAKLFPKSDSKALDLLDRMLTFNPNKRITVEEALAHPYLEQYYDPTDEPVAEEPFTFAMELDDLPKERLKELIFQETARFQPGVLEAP

| Structure (SMILES) | IC50 (MEK1 activated ERK1) [nM] | EC50 [1] [nM] |
| --- | --- | --- |
| C=CC(=O)Nc1ccccc1Nc1nc(Nc2cc(C(=O)NOC)ccc2OC)ncc1Cl [Compound I-187, 3-((4-((2-acrylamidophenyl)amino)-5-chloropyrimidin-2-yl)amino)-N,4-dimethoxybenzamide] | 101 to 500 | 101 to 500 |
| C=CC(=O)Nc1ccccc1Nc1nc(Nc2cc(C(N)=O)c(OCCCNC(=O)C#CC)cc2C)ncc1Cl [Compound I-305, 5-((4-((2-acrylamidophenyl)amino)-5-chloropyrimidin-2-yl)amino)-2-(3-(but-2-ynamido)propoxy)-4-methylbenzamide] | 101 to 500 | > 1000 |
| C=CC(=O)Nc1ccccc1Nc1nc(Nc2cc(C(=O)NOC)ccc2OC)ncc1C(F)(F)F [Compound I-67, 3-((4-((2-Acrylamidophenyl)amino)-5-(trifluoromethyl)pyrimidin-2-yl)amino)-N,4-dimethoxybenzamide] | 101 to 500 | 501 to 999 |
| C=CC(=O)Nc1cc(F)ccc1Nc1nc(Nc2ccc(F)cc2OC)ncc1Cl [Compound I-213, N-(2-((5-chloro-2-((4-fluoro-2-methoxyphenyl)amino)pyrimidin-4-yl)amino)-5-fluorophenyl)acrylamide] | 101 to 500 | 101 to 500 |
| C=CC(=O)Nc1ccccc1Nc1nc(NC(C)(C)C)ncc1C(F)(F)F [Compound I-82, N-(2-((2-(tert-Butylamino)-5-(trifluoromethyl)pyrimidin-4-yl)amino)phenyl)acrylamide] | 501 to 999 | > 1000 |
| C#CC(=O)N[C@@H]1CCCC[C@H]1Nc1nc(N[C@H]2CCCN(C(=O)CO)C2)ncc1C(F)(F)F [Compound I-34, N-((1R,2R)-2-((2-(((S)-1-(2-Hydroxyacetyl)piperidin-3-yl)amino)-5-(trifluoromethyl)pyrimidin-4-yl)amino)cyclohexyl)propiolamide] | 101 to 500 | > 1000 |
| C=CC(=O)Nc1ccc(C)cc1Nc1nc(NC2CCC(=O)CC2)ncc1C(F)(F)F [Compound I-39, N-(4-Methyl-2-((2-((4-oxocyclohexyl)amino)-5-(trifluoromethyl)pyrimidin-4-yl)amino)phenyl)acrylamide] | 101 to 500 | 501 to 999 |
| CC(=O)N1CCC[C@H](Nc2ncc(C(F)(F)F)c(NC3C4C=CC(C4)C3C(=O)NC#N)n2)C1 (mixture of isomers) [Compound I-25, Rac-3-((2-(((S)-1-acetylpiperidin-3-yl)amino)-5-(trifluoromethyl)pyrimidin-4-yl)-cis-amino)-N-cyanobicyclo[2.2.1]hept-5-ene-2-carboxamide] | > 1000 | > 1000 |
| C=CC(=O)Nc1ccccc1Nc1nc(Nc2cncc(C(N)=O)c2)ncc1C(F)(F)F [Compound I-63, 5-((4-((2-Acrylamidophenyl)amino)-5-(trifluoromethyl)pyrimidin-2-yl)amino)nicotinamide] | 101 to 500 | > 1000 |
| C=CC(=O)Nc1cc(OC)ccc1Nc1nc(Nc2ccc(N(CC)C(C)=O)cc2C(F)(F)F)ncc1Cl [Compound I-176, N-(2-((5-chloro-2-((4-(N-ethylacetamido)-2-(trifluoromethyl)phenyl)amino)pyrimidin-4-yl)amino)-5-methoxyphenyl)acrylamide] | 501 to 999 |  |

Further lines, results first:

| IC50 (MEK1 activated ERK1) [nM] | EC50 [1] [nM] | Structure (SMILES) |
| --- | --- | --- |
| > 1000 | > 1000 | C=CC(=O)N(C)c1ccccc1Nc1nc(N[C@@H]2CCC[C@H](C(=O)NOC)C2)ncc1Cl (racemic) [Compound I-106, Rac-cis-3-((5-chloro-4-((2-(N-methylacrylamido)phenyl)amino)pyrimidin-2-yl)amino)-N-methoxycyclohexanecarboxamide] |
| 101 to 500 | > 1000 | C=CC(=O)Nc1ccccc1Nc1nc(Nc2cc(C(=O)NOC)ccc2C#N)ncc1Cl [Compound I-195, 3-((4-((2-acrylamidophenyl)amino)-5-chloropyrimidin-2-yl)amino)-4-cyano-N-methoxybenzamide] |
| 101 to 500 | 101 to 500 | C=CC(=O)Nc1ccccc1Nc1nc(NC2CCCCC2)ncc1Cl [Compound I-107, N-(2-((5-chloro-2-(cyclohexylamino)pyrimidin-4-yl)amino)phenyl)acrylamide] |
| > 1000 | > 1000 | C=C(C)C(=O)Nc1cc(F)ccc1Nc1nc(N[C@@H]2CCC[C@H](C(N)=O)C2)ncc1Cl (racemic) [Compound I-114, Rac-cis-3-((5-chloro-4-((4-fluoro-2-methacrylamidophenyl)amino)pyrimidin-2-yl)amino)cyclohexanecarboxamide] |
| 101 to 500 | > 1000 | C=CC(=O)Nc1ccccc1Nc1nc(Nc2cc(C(=O)O)ccc2C)ncc1Cl [Compound I-225, 3-((4-((2-acrylamidophenyl)amino)-5-chloropyrimidin-2-yl)amino)-4-methylbenzoic acid] |
| 101 to 500 | 501 to 999 | C=CC(=O)N[C@H]1CCCC[C@@H]1Nc1nc(N[C@H]2CCCN(C(=O)CO)C2)ncc1Cl (racemic) [Compound I-141, Rac-N-(2-((5-chloro-2-(((R)-1-(2-hydroxyacetyl)piperidin-3-yl)amino)pyrimidin-4-yl)amino)-trans-cyclohexyl)acrylamide] |
| 101 to 500 | > 1000 | C=CC(=O)Nc1ccccc1Nc1nc(N[C@H]2CCCN(C(=O)C(C)(C)O)C2)ncc1Cl [Compound I-135, (S)—N-(2-((5-chloro-2-((1-(2-hydroxy-2-methylpropanoyl)piperidin-3-yl)amino)pyrimidin-4-yl)amino)phenyl)acrylamide] |
| 101 to 500 |  | C=CC(=O)Nc1ccccc1Nc1nc(N[C@@H]2CCCN(C(C)=O)C2)ncc1Cl [Compound I-128, (R)—N-(2-((2-((1-acetylpiperidin-3-yl)amino)-5-chloropyrimidin-4-yl)amino)phenyl)acrylamide] |
| 501 to 999 |  | C=CC(=O)Nc1ccccc1Nc1nc(N[C@H]2CC[C@@H](O)CC2)ncc1C(F)(F)F [Compound I-109, N-(2-((2-(cis-(4-hydroxycyclohexyl)amino)-5-(trifluoromethyl)pyrimidin-4-yl)amino)phenyl)acrylamide] |
| 101 to 500 |  | C=CC(=O)Nc1ccccc1Nc1nc(Nc2ccc(N3CCC[C@H]3C(N)=O)cc2C#N)ncc1Cl [Compound I-177, (S)-1-(4-((4-((2-acrylamidophenyl)amino)-5-chloropyrimidin-2-yl)amino)-3-cyanophenyl)pyrrolidine-2-carboxamide] |
| > 1000 |  | C=CC(=O)N[C@@H]1CCCC[C@H]1Oc1nc(Nc2cc(C(=O)NOC)ccc2C)ncc1C(N)=O (racemic) [Compound I-269, Rac-trans-4-((2-acrylamidocyclohexyl)oxy)-2-((5-(methoxycarbamoyl)-2-methylphenyl)amino)pyrimidine-5-carboxamide] |
| > 1000 |  | C=CC(=O)N[C@@H]1CCCC[C@H]1Oc1nc(Nc2cc(C(N)=O)ccc2C)ncc1Cl (racemic) [Compound I-270, Rac-trans-3-((4-((2-acrylamidocyclohexyl)oxy)-5-chloropyrimidin-2-yl)amino)-4-methylbenzamide] |
| 101 to 500 |  | C=CC(=O)Nc1ccccc1Nc1nc(N[C@@H]2CCC[C@H](C(=O)NOC)C2)ncc1Cl (racemic) [Compound I-203, Rac-cis-3-((4-((2-acrylamidophenyl)amino)-5-chloropyrimidin-2-yl)amino)-N-methoxycyclohexanecarboxamide] |
